Experimental data taken from patent publication USRE45666E1, “Preparation of hydrophilic pressure sensitive adhesives having optimized adhesive properties” (priority 2000, dated 2015).
Where two headings read alike, the source gives them in different places.

Tests used:
[1] = In vitro drug delivery rate across Carbosil membrane; assay type: in vitro ADME
Experimental: In vitro drug delivery rate determination from water-soluble PSA matrices was performed using human cadaver skin or a skin-imitating Carbosil membrane to protect the matrices from dissolving in the receptor solution. The patch was adhered to the center of a Carbosil membrane sheet of twice its area. The membrane margins were then wrapped around the sample. The back side of the packet was closely attached to a steel plate-holder to prevent direct contact of the matrix with the receptor solution. In a similar fashion, cadaver skin epidermis can be used instead of a Carbosil membrane. The holder with the wrapped sample was then submerged into an aqueous sink and in vitro drug delivery rate was determined using a USP rotating cylinder method paddle-over-disc. The rate of drug appearance rate in a receptor solution (0.15 M NaCl) at 35.0±0.5° C. was determined spectrophotometrically.

[2] = Styrene butadiene rubber matrix

Row | Compound | Delivery rate from hydrophilic matrix via Carbosil [1] | Delivery rate from hydrophilic matrix via Carbosil ([1]; hydrophilic PVP-PEG matrix) | Release rate from hydrophobic matrices [2] | Release rate from hydrophobic matrices (PIB matrix (Catapress ® TTS))
1 | O=[N+]([O-])OCC(CO[N+](=O)[O-])O[N+](=O)[O-] [Nitroglycerin] | 160 ± 40 μg/cm^2h | – | – | –
2 | Silabolin | – | 131 ± 30 μg/cm^2h | 16 ± 7 μg/cm^2h | –
3 | Clc1cccc(Cl)c1N=C1NCCN1 [Clonidine] | – | 5 ± 2 μg/cm^2h | – | 1.6 ± 0.2 μg/cm^2h
4 | CC(C)NCC(O)COc1cccc2ccccc12 (stereo not shown) [Propranolol] | – | 118 ± 25 μg/cm^2h | 56 ± 4 μg/cm^2h | –
